This note sets out measurements from ChEMBL document CHEMBL1150747, “Isolation of deoxyshikonin, an antidermatophytic principle from Lithospermum erythrorhizon cell cultures” (1988).

Structures are written as SMILES. In brackets after ≈: the same amount, converted by molar mass. Activity calls are given as the source filed them. The calls are words filed in the database; no cut-off is given here.

In one test the test system is Trichophyton rubrum. The test is described as follows: Antimicrobial activity against Trichophyton rubrum IFO 5808 after 7 days by agar dilution streak method. The class given is functional. Particulars: IFO 5808, 168 h. On the technique in general: Agar dilution tests growth on a series of plates holding different concentrations.
The test system of test [1] is Trichophyton mentagrophytes. Nature of the test: Antimicrobial activity against Trichophyton mentagrophytes IFO 5809 after 7 days by agar dilution streak method. The class given is functional. Particulars: IFO 5809, 168 h.
A further test concerns Serratia marcescens. Nature of the test: Antimicrobial activity against Serratia marcescens IFO 12648 at 200 ug/mL after 24 hrs by paper disk method. The class given is functional, organism-based.
A further test deals with Candida tropicalis. The test is described as follows: Antimicrobial activity against Candida tropicalis IFO 0006 at 200 ug/mL after 7 days by paper disk method. The class given is functional, organism-based.
Another test concerns Pseudomonas aeruginosa. The test is described as follows: Antimicrobial activity against Pseudomonas aeruginosa IFO 12689 at 200 ug/mL after 24 hrs by paper disk method. The class given is functional, organism-based.
The next test deals with Cyberlindnera jadinii. Nature of the test: Antimicrobial activity against Candida utilis […] at 200 ug/mL after 7 days by paper disk method. The class given is functional, organism-based.
A further test has as its system Kocuria rosea. Nature of the test: Antimicrobial activity against Micrococcus roseus IFO 3764 after 24 hrs by agar dilution streak method. The class given is functional. As to conditions: IFO 3764, 24 h.
In the next test the test system is Staphylococcus aureus. The test is described as follows: Antimicrobial activity against Staphylococcus aureus 209P IFO 12732 after 24 hrs by agar dilution streak method. The class given is functional. Particulars: 209P IFO 12732, 24 h.
The test system of another test is Candida albicans. Nature of the test: Antimicrobial activity against Candida albicans IFO 0197 at 200 ug/mL after 7 days by paper disk method. The class given is functional, organism-based.
The subject of another test is Bacillus subtilis. Nature of the test: Antimicrobial activity against Bacillus subtilis PCI 219 IFO 3513 after 24 hrs by agar dilution streak method. Particulars: PCI 219 IFO 3513, 24 h. The class given is functional.
Another test concerns Saccharomyces. The test is described as follows: Antimicrobial activity against Saccharomyces sake IFO 0305 after 7 days by agar dilution streak method. The class given is functional. Particulars: IFO 0305, 168 h.
For a further test, the system named is Micrococcus luteus. Nature of the test: Antimicrobial activity against Micrococcus luteus IFO 12708 after 24 hrs by agar dilution streak method. The class given is functional. Particulars: IFO 12708, 24 h.
In another test the test system is Nannizzia gypsea. The test is described as follows: Antimicrobial activity against Microsporum gypseum IFO 8307 after 7 days by agar dilution streak method. The class given is functional. Particulars: IFO 8307, 168 h.
The next test deals with Epidermophyton floccosum. The test is described as follows: Antimicrobial activity against Epidermophyton floccosum IFO 9045 after 7 days by agar dilution streak method. The class given is functional. As to conditions: IFO 9045, 168 h.
The subject of the next test is Escherichia coli. Nature of the test: Antimicrobial activity against Escherichia coli NIHJ IFO 12734 at 200 ug/mL after 24 hrs by paper disk method. The class given is functional, organism-based.
Test [2] relates to Trichophyton mentagrophytes. Nature of the test: Fungistatic activity against Trichophyton mentagrophytes IFO 5809 at 100 ug/mL after 7 days by liquid dilution method. The class given is functional, organism-based.
The next test relates to Pichia norvegensis. The test is described as follows: Antimicrobial activity against Candida mycoderma IFO 0162 at 200 ug/mL after 7 days by paper disk method. The class given is functional, organism-based.
Test [3] has as its system Meyerozyma guilliermondii. Nature of the test: Antimicrobial activity against Candida guilliermondii IFO 0454 at 200 ug/mL after 7 days by paper disk method. The class given is functional, organism-based.
Test [4] deals with Trichophyton tonsurans var. sulfureum. Nature of the test: Antimicrobial activity against Trichophyton tonsurans var. sulfureum IFO 5945 after 7 days by agar dilution streak method. The class given is functional. Particulars: IFO 5945, 168 h.

For the compound `CC(C)=CCCC1=CC(=O)c2c(O)ccc(O)c2C1=O` [DEOXYSHIKONIN], the MIC with Trichophyton rubrum turned out to be 25 µg/mL (≈ 91.8 µM); in test [1], 12.5 µg/mL (≈ 45.9 µM); with Kocuria rosea, 100 µg/mL (≈ 367 µM); against Staphylococcus aureus it was 200 µg/mL (≈ 734 µM); with Bacillus subtilis it was 200 µg/mL (≈ 734 µM); against Saccharomyces, 6.2 µg/mL (≈ 22.8 µM). Besides, the MIC is 50 µg/mL (≈ 184 µM) against Micrococcus luteus, 6.2 µg/mL (≈ 22.8 µM) in the test on Nannizzia gypsea, 6.2 µg/mL (≈ 22.8 µM) against Epidermophyton floccosum and 12.5 µg/mL (≈ 45.9 µM) in [4]. Besides, the result in the test on Serratia marcescens, with Candida tropicalis, with Pseudomonas aeruginosa, with Cyberlindnera jadinii, in the test with Candida albicans and in the test on Escherichia coli was inactive. In addition, the result (in test [2]; with Pichia norvegensis; in test [3]) was inactive.
As for `CC(C)=CC[C@@H](O)C1=CC(=O)c2c(O)ccc(O)c2C1=O` [SHIKONIN], the MIC against Trichophyton rubrum was 25 µg/mL (≈ 86.7 µM); in [1] it was 25 µg/mL (≈ 86.7 µM); against Kocuria rosea, 200 µg/mL (≈ 694 µM); in the test with Staphylococcus aureus, > 200 µg/mL; with Bacillus subtilis, > 200 µg/mL; in the test on Saccharomyces, 3.1 µg/mL (≈ 10.8 µM). The MIC in the test with Micrococcus luteus is 100 µg/mL (≈ 347 µM); against Nannizzia gypsea it was 12.5 µg/mL (≈ 43.4 µM); against Epidermophyton floccosum it was 6.2 µg/mL (≈ 21.5 µM); in [4], 25 µg/mL (≈ 86.7 µM). The outcome in the test on Serratia marcescens, in the test on Candida tropicalis, in the test with Pseudomonas aeruginosa, in the test with Cyberlindnera jadinii, with Candida albicans and in the test on Escherichia coli was inactive. The outcome (in the test on Pichia norvegensis; in test [3]) was inactive.
Take `O=C(N[C@H](CO)[C@H](O)c1ccc([N+](=O)[O-])cc1)C(Cl)Cl` [CHLORAMPHENICOL]: the MIC with Kocuria rosea is 25 µg/mL (≈ 77.4 µM); against Staphylococcus aureus it was 12.5 µg/mL (≈ 38.7 µM); in the test on Bacillus subtilis, 6.2 µg/mL (≈ 19.2 µM); against Saccharomyces it was > 200 µg/mL; against Micrococcus luteus, 6.2 µg/mL (≈ 19.2 µM).
`COC1=CC(=O)C[C@@H](C)[C@]12Oc1c(Cl)c(OC)cc(OC)c1C2=O` [GRISEOFULVIN]: the minimum inhibitory concentration (MIC) against Trichophyton rubrum was 3.1 µg/mL (≈ 8.79 µM); in test [1], 3.1 µg/mL (≈ 8.79 µM); against Nannizzia gypsea, 1.5 µg/mL (≈ 4.25 µM); against Epidermophyton floccosum it was 1.5 µg/mL (≈ 4.25 µM); in [4], 3.1 µg/mL (≈ 8.79 µM).

As a reminder, the MIC is the lowest concentration found to suppress growth. The low end stands for inhibition by little substance, the high end for a need for much substance.
